Drawing on patent publication US20250032625A1, “HETEROBIFUNCTIONAL MOLECULES AS TEAD INHIBITORS” (Merck Patent GmbH, priority 2021, published 2025), this text covers DC50 for 13 compounds.

Where two headings read alike, the source gives them in different places. A value given as a limit tells only on which side of the number the result lay.

One test concerns the target TEAD1 in NCI-H226 cells (Homo sapiens (Human), UniProt P28347). Description: TEAD degradation in NCI-H226 cell line (immunofluorescence). In kind it is cell-based. The method, then:
(§1) Degradation of TEAD isoform TEAD1 by exemplary compounds which has been determined at different time points in two different cell lines, SK-HEP1 and NCI-H226: For the assay, SK-HEP1 (ATCC HTB-52) and NCI-H226 (ATCC CRL-5826) cells were treated in duplicates with the test compounds in a 10-point dose, 1:3 dilution steps, with the top concentration starting at 30 uM (final concentration in assay). After either 16 or 24 hour incubation at 37° C., 95% rH, and 5% CO2, the cells were fixed with 4% PFA and TEAD1 levels were probed using immunofluorescence. The primary antibody used was Anti-TEF1 (BD, 610293) and the secondary antibody used was Alexa Fluor® 488 Goat Anti-Mouse IgG (H+L) (Molecular Probes, A-11001). Finally, the cell nuclei were co-stained by Hoechst 33258 (Invitrogen, H-3569) and imaged using a high content imager. The amount of TEAD degradation was determined by quantifying the fluorescence intensity levels of Anti-TEF1 in each individual cell per well. DC50 was calculated using curve fitting software Genedata Screener. Cell media: The SK-HEP1 cells were cultured in the following media: MEM, +10% FCS, +1× GlutaMAX, +100 μM NEAA, +10 mM HEPES, +0.5% Pen/Strep. The NCI-H226 cells were cultured in the following media: RPMI 1640, +10% FBS, +1× GlutaMAX, +10 mM HEPES, +0.5% Pen/Strep.

The target of the next test is TEAD1 in SK-HEP1 cells (Homo sapiens (Human), UniProt P28347). In words: TEAD degradation in SK-HEP1 cell line (immunofluorescence). It counts as cell-based. As for the experimental part: as §1
Chain of TEAD1 in SK-HEP1 cells (P28347 whole entry): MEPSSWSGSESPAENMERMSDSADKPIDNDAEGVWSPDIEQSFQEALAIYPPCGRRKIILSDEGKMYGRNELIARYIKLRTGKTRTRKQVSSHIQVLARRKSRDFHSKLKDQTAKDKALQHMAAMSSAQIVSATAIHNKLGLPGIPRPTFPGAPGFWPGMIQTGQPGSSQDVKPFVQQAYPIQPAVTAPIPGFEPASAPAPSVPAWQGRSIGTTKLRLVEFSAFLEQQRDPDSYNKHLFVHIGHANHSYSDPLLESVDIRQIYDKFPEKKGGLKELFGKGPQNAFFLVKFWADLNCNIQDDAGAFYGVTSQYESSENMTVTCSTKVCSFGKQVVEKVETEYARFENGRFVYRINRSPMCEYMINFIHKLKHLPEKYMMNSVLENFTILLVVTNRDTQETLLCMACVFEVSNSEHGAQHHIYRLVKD
The mark [1] stands for this setting: 24 hours, ranges, read-out: DC50 NCI-H226.
Setting [2] is: 24 hours, ranges, read-out: DC50 SK-HEP1.
Setting [3] is: 24 h incubation, read-out: DC50 NCI-H226 24 h.
Setting [4] is: 24 h incubation, read-out: DC50 SK-HEP1 24 h.

By DC50 is commonly meant the concentration at which degradation of the target reaches its halfway point.

Chain of TEAD1 in NCI-H226 cells (P28347 whole entry, canonical isoform): as the sequence (P28347 whole entry) above

`Cn1cc2c3cc(C(=O)NCCOCCOCCOCCOCCNc4ccc5c(c4)C(=O)N(C4CCC(=O)NC4=O)C5=O)ccc3n(-c3ccc(C(F)(F)F)cc3)c2n1` (stereo not shown) [Compound 42, N-(14-{[2-(2,6-dioxopiperidin-3-yl)-1,3-dioxo-2,3-dihydro-1H-isoindol-5-yl]amino}-3,6,9,12-tetraoxatetradecan-1-yl)-2-methyl-8-[4-(trifluoro-methyl)phenyl]-2H,8H-pyrazolo[3,4-b]indole-5-carboxamide]: the results for the DC50 on TEAD1 in NCI-H226 cells (setting [1]) and on TEAD1 in SK-HEP1 cells (setting [2]) were 100 to 1000 nM and below 100 nM, respectively.

With `Cn1cc2c3cc(C(=O)NCC#Cc4ccc(N5CCN(CCCC(=O)Nc6ccc7c(c6)CN(C6CCC(=O)NC6=O)C7=O)CC5)nc4)ccc3n(-c3ccc(C(F)(F)F)cc3)c2n1` (stereo not shown) [Compound 19, N-(3-{6-[4-(3-{[2-(2,6-dioxopiperidin-3-yl)-1-oxo-2,3-dihydro-1H-isoindol-5-yl]carbamoyl}propyl)piperazin-1-yl]pyridin-3-yl}prop-2-yn-1-yl)-2-methyl-8-[4-(trifluoromethyl)phenyl]-2H,8H-pyrazolo[3,4-b]indole-5-carboxamide], the DC50 at TEAD1 in NCI-H226 cells (setting [3]) is 70 nM; on TEAD1 in NCI-H226 cells (setting [1]) it was below 100 nM; at TEAD1 in SK-HEP1 cells (setting [4]), 40 nM; at TEAD1 in SK-HEP1 cells (setting [2]), below 100 nM.

`Cn1cc2c3cc(C(=O)NCCOCCOCCOCCOCCOc4cccc5c4C(=O)N(C4CCC(=O)NC4=O)C5=O)ccc3n(-c3ccc(C(F)(F)F)cc3)c2n1` (stereo not shown) [Compound 16, N-(14-{[2-(2,6-dioxopiperidin-3-yl)-1,3-dioxo-2,3-dihydro-1H-isoindol-4-yl]oxy}-3,6,9,12-tetraoxatetradecan-1-yl)-2-methyl-8-[4-(trifluoromethyl)phenyl]-2H,8H-pyrazolo[3,4-b]indole-5-carboxamide]: the half-maximal degradation concentration (DC50) on TEAD1 in NCI-H226 cells (setting [3]) is 600 nM; at TEAD1 in NCI-H226 cells (setting [1]) it was 100 to 1000 nM; on TEAD1 in SK-HEP1 cells (setting [4]), 250 nM; at TEAD1 in SK-HEP1 cells (setting [2]), 100 to 1000 nM.

For `Cc1ncsc1-c1ccc(CNC(=O)[C@@H]2C[C@@H](O)CN2C(=O)[C@@H](NC(=O)CCCCCC(=O)NCCOCCOCCNC(=O)c2ccc3c(c2)c2nn(C)nc2n3-c2ccc(C(F)(F)F)cn2)C(C)(C)C)cc1` [Compound 55, N-[(2S)-1-[(2S,4R)-4-hydroxy-2-({[4-(4-methyl-1,3-thiazol-5-yl)phenyl]methyl}carbamoyl)pyrrolidin-1-yl]-3,3-dimethyl-1-oxobutan-2-yl]-N′-(2-{2-[2-({2-methyl-4-[5-(trifluoromethyl)pyridin-2-yl]-2H,4H-[1,2,3]triazolo[4,5-b]indol-7-yl}formamido)ethoxy]ethoxy}ethyl)-heptanediamide], the DC50 at TEAD1 in NCI-H226 cells (setting [1]) and on TEAD1 in SK-HEP1 cells (setting [2]) was 100 to 1000 nM throughout.

`Cn1nc2c3cc(C(=O)NCCOCCOCCOCCOCCNc4cccc5c4C(=O)N(C4CCC(=O)NC4=O)C5=O)ccc3n(-c3ccc(C(F)(F)F)cc3)c2n1` (stereo not shown) [Compound 45, N-(14-{[2-(2,6-dioxopiperidin-3-yl)-1,3-dioxo-2,3-dihydro-1H-isoindol-4-yl]amino}-3,6,9,12-tetraoxatetradecan-1-yl)-2-methyl-4-[4-(trifluoromethyl)phenyl]-2H,4H-[1,2,3]triazolo[4,5-b]indole-7-carboxamide]: the DC50 on TEAD1 in NCI-H226 cells (setting [1]) is below 100 nM; on TEAD1 in SK-HEP1 cells (setting [2]), 100 to 1000 nM.

As to `CC(=O)O[C@@H]1C[C@@H](C(=O)N[C@@H](C)c2ccc(-c3scnc3C)cc2)N(C(=O)[C@@H](NC(=O)CCCCCC(=O)NCCOCCOCCNC(=O)c2ccc3c(c2)c2cn(C)nc2n3-c2ccc(C(F)(F)F)cc2)C(C)(C)C)C1` [Compound 25, (3R,5S)-1-[(2S)-3,3-dimethyl-2-{6-[(2-{2-[2-({2-methyl-8-[4-(trifluoromethyl)phenyl]-2H,8H-pyrazolo[3,4-b]indol-5-yl}formamido)ethoxy]ethoxy}ethyl)carbamoyl]hexanamido}butanoyl]-5-{[(1S)-1-[4-(4-methyl-1,3-thiazol-5-yl)phenyl]ethyl]carbamoyl}pyrrolidin-3-yl acetate], the DC50 on TEAD1 in NCI-H226 cells (16 h incubation, read-out: DC50 NCI-H226 16 h) was 1000 nM; on TEAD1 in NCI-H226 cells (setting [3]), 1000 nM; on TEAD1 in NCI-H226 cells (setting [1]), 1000 to 3000 nM; at TEAD1 in SK-HEP1 cells (16 h incubation, read-out: DC50 SK-HEP1 16 h), 1000 nM; on TEAD1 in SK-HEP1 cells (setting [4]), 1000 nM; on TEAD1 in SK-HEP1 cells (setting [2]), 100 to 1000 nM.

As to `Cc1ncsc1-c1ccc([C@H](C)NC(=O)[C@@H]2C[C@@H](O)CN2C(=O)[C@@H](NC(=O)CCCCCc2cnnn2CCCCCCCNC(=O)c2ccc3c(c2)c2cn(C)nc2n3-c2ccc(C(F)(F)F)cc2)C(C)(C)C)cc1` [Compound 38, (2S,4R)-1-[(2S)-3,3-dimethyl-2-(6-{1-[7-({2-methyl-8-[4-(trifluoromethyl)-phenyl]-2H,8H-pyrazolo[3,4-b]indol-5-yl}formamido)heptyl]-1H-1,2,3-triazol-5-yl}hexanamido)butanoyl]-4-hydroxy-N-[(1S)-1-[4-(4-methyl-1,3-thiazol-5-yl)phenyl]ethyl]pyrrolidine-2-carboxamide], the DC50 on TEAD1 in NCI-H226 cells (setting [1]) and at TEAD1 in SK-HEP1 cells (setting [2]) was 100 to 1000 nM in each case.

Consider `CCNC(=O)[C@H](Cc1ccc(F)cc1)NC(=O)[C@@H]1CCCN1C(=O)[C@@H](NC(=O)[C@H](C)NCCOCCOCCOCCNC(=O)c1ccc2c(c1)c1cn(C)nc1n2-c1ccc(C(F)(F)F)cc1)C1CCCCC1` (stereo in doubt) [Compound 69, (13S)—N-[(1S)-1-cyclohexyl-2-[(2S)-2-{[(1S)-1-(ethylcarbamoyl)-2-(4-fluorophenyl)ethyl]carbamoyl}pyrrolidin-1-yl]-2-oxoethyl]-13-methyl-1-({2-methyl-8-[4-(trifluoromethyl)phenyl]-2H,8H-pyrazolo[3,4-b]indol-5-yl}form-amido)-3,6,9-trioxa-12-azatetradecan-14-amide], for which the DC50 on TEAD1 in NCI-H226 cells (setting [1]) was in the range of 9000 to 30000 nM; at TEAD1 in SK-HEP1 cells (setting [2]) it was 3000 to 9000 nM.

For `Cn1cc2c3cc(C(=O)NCCOCCOCCOCCOCCNc4cccc5c4C(=O)N(C4CCC(=O)NC4=O)C5=O)ccc3n(CC3CCC(C(F)(F)F)CC3)c2n1` (stereo not shown) [Compound 99, N-(14-{[2-(2,6-dioxopiperidin-3-yl)-1,3-dioxo-2,3-dihydro-1H-isoindol-4-yl]amino}-3,6,9,12-tetraoxatetradecan-1-yl)-2-methyl-8-{[4-(trifluoromethyl)cyclohexyl]methyl}-2H,8H-pyrazolo[3,4-b]indole-5-carboxamide], the DC50 on TEAD1 in NCI-H226 cells (setting [1]) was 100 to 1000 nM; at TEAD1 in SK-HEP1 cells (setting [2]), below 100 nM.

As for `Cn1nc2c3cc(C(=O)NCCOCCOCCOCCOCCNc4cccc5c4C(=O)N(C4CCC(=O)NC4=O)C5=O)ccc3n([C@H]3CC[C@H](C(F)(F)F)CC3)c2n1` (stereo partly shown) [Compound 95, N-(14-{[2-(2,6-dioxopiperidin-3-yl)-1,3-dioxo-2,3-dihydro-1H-isoindol-4-yl]amino}-3,6,9,12-tetraoxatetradecan-1-yl)-2-methyl-4-[(1r,4r)-4-(trifluoromethyl)cyclohexyl]-2H,4H-[1,2,3]triazolo[4,5-b]indole-7-carboxamide], the DC50 on TEAD1 in NCI-H226 cells (setting [1]) and on TEAD1 in SK-HEP1 cells (setting [2]) was 100 to 1000 nM in each case.

Take `Cc1ncsc1-c1ccc(CNC(=O)[C@@H]2C[C@@H](O)CN2C(=O)[C@@H](NC(=O)CCCCCc2cn(CCCCCCCNC(=O)c3ccc4c(c3)c3cn(C)nc3n4-c3ccc(C(F)(F)F)cc3)nn2)C(C)(C)C)cc1` [Compound 34, (2S,4R)-1-[(2S)-3,3-dimethyl-2-(6-{1-[7-({2-methyl-8-[4-(trifluoromethyl)phenyl]-2H,8H-pyrazolo[3,4-b]indol-5-yl}formamido)heptyl]-1H-1,2,3-triazol-4-yl}hexanamido)butanoyl]-4-hydroxy-N-{[4-(4-methyl-1,3-thiazol-5-yl)phenyl]methyl}pyrrolidine-2-carboxamide]: the half-maximal degradation concentration (DC50) at TEAD1 in NCI-H226 cells (setting [1]) and at TEAD1 in SK-HEP1 cells (setting [2]) was 100 to 1000 nM each time.

Consider `Cn1cc2c3cc(C(=O)NCCOCCOCCOCCNc4cccc5c4C(=O)N(C4CCC(=O)NC4=O)C5=O)ccc3n(-c3ccc(C(F)(F)F)cc3)c2n1` (stereo not shown) [Compound 50, N-(2-{2-[2-(2-{[2-(2,6-dioxopiperidin-3-yl)-1,3-dioxo-2,3-dihydro-1H-iso-indol-4-yl]amino}ethoxy)ethoxy]ethoxy}ethyl)-2-methyl-8-[4-(trifluoro-methyl)phenyl]-2H,8H-pyrazolo[3,4-b]indole-5-carboxamide], for which the results for the 50% degradation concentration (DC50) at TEAD1 in NCI-H226 cells (setting [1]) and at TEAD1 in SK-HEP1 cells (setting [2]) were below 100 nM and 9000 to 30000 nM, respectively.

Regarding `Cc1ncsc1-c1ccc(CNC(=O)[C@@H]2C[C@@H](O)CN2C(=O)[C@@H](NC(=O)CCCOCCOCCOCCOCCNC(=O)c2ccc3c(c2)c2cn(C)nc2n3-c2ccc(C(F)(F)F)cc2)C(C)(C)C)cc1` [Compound 57, [(2S)-3,3-dimethyl-2-[1-({2-methyl-8-[4-(trifluoromethyl)phenyl]-2H,8H-pyrazolo[3,4-b]indol-5-yl}formamido)-3,6,9,12-tetraoxahexadecan-16-amido]butanoyl]-4-hydroxy-N-{[4-(4-methyl-1,3-thiazol-5-yl)phenyl]-methyl}pyrrolidine-2-carboxamide], the half-maximal degradation concentration (DC50) on TEAD1 in NCI-H226 cells (setting [1]) and at TEAD1 in SK-HEP1 cells (setting [2]) was 1000 to 3000 nM in each case.
